# Patent US8008303B2, “Biphenyl derivatives and their use in treating hepatitis C” (AstraZeneca AB, priority 2005, dated 2011)
# Where two headings read alike, the source gives them in different places.
# How the values were obtained:
# [1] = tested on: HCV replicon cells Huh 9B; assay: HCV replicon assay (luciferase readout); format: cell-based
# Description: (§1) HCV replicon cells Huh 9B (ReBlikon), containing the firefly luciferase-ubiquitin-neomycin phosphotransferase fusion protein and EMCV-IRES driven HCV polyprotein with cell culture adaptive mutations.
# Cells were cultured at 37° C. in a 5% CO2 environment and split twice a week on seeding at 2×10^6 cells/flask on day 1 and 1×10^6 3 days later. G418 at 0.5 mg/ml was added to the culture medium but not the assay medium.
# The culture medium consisted of DMEM with […] glucose and glutamax (Gibco 61965-026) supplemented with 1× non-essential amino acids (Invitrogen 11140-035), penicillin (100 IU/ml)/streptomycin (100 μg/ml) (Invitrogen 15140-122), FCS (10%, 50 ml) and 1 mg/ml G418 (Invitrogen 10131-027) & 10% Australian foetal calf serum (Invitrogen 10099-141).
# A flask of cells was trypsinised and a cell count carried out. Cells were diluted to 100,000 cells/ml and 100 μl of this used to seed one opaque white 96-well plate (for the replicon assay) and one flat-bottomed clear plate (for the tox assay) for every seven compounds to be tested for IC50. Wells G12 and H12 were left empty in the clear plate as the blank. Plates were then incubated at 37° C. in a 5% CO2 environment for 24 h.
# (§2) On the following day compound dilutions are made up in medium at twice their desired final concentration in a clear round bottomed plate. All dilutions have a final DMSO concentration of 1%.
# Once the dilution plate had been made up, controls and compounds were transferred to the assay plate (containing the cells) at 100 μl /well in duplicate plates. Exception: no compound was added to wells A1 and A2 of either plate and 100 μl of 1% DMSO was added to these instead. Plates were then incubated at 37° C. with 5% CO2 for 72 h.
# At the end of the incubation time, the cells in the white plate were harvested by washing 23.5 mM beetle luciferin (Promega E1603), 26 mM ATP (Sigma 0-2060) in […] Tris buffer pH 7.8 aliquoted and stored at −80 C was thawed and diluted 1:50 in luciferase assay buffer (20 mM Tricine (Sigma T-0377), 1.07 mM magnesium carbonate hydroxide (Sigma M-5671), 0.1 mM EDTA (Sigma E-5134), 2.67 mM MgSO4 (BDH 101514Y), 33.3 mM dithiothreitol (Sigma 150460) pH 7.8).
# The M injector of the microplate luminometer (Lmax, Molecular Devices) was primed with 5×300 μl injections of the diluted substrate. After 5-60 min incubation in lysis buffer at room temperature, a plate was inserted into the luminometer and 100 μl luciferase assay reagent was added by the injector on the luminometer. The signal was measured using a 1 second delay followed by a 4 second measurement programme.
# [2] = tested on: HCV replicon cells Huh 9B; format: cell-based
# Description: as §1
# A flask of cells was trypsinised and a cell count carried out. […] Wells G12 and H12 were left empty in the clear plate as the blank. Plates were then incubated at 37° C. in a 5% CO2 environment for 24 h.
# as §2
# Exception: no compound was added to wells A1 and A2 of either plate and 100 μl of 1% DMSO was added to these instead. Plates were then incubated at 37° C. with 5% CO2 for 72 h.
# The clear plate was stained with 100 μl 0.5% methylene blue in 50% ethanol at room temperature for 1 h, followed by solvation of the absorbed methylene blue in 100 μl per well of 1% lauroylsarcosine. Absorbance of the plate was measured on a microplate spectrophotometer (Molecular Devices) and the absorbance for each concentration of compound expressed as a proportion of the relative DMSO control.
# [3] = Hepatitis C virus, 72 h, concentration reducing replicon level (luciferase activity) by 50% vs untreated cell control, 72 h incubation
# [4] = concentration reducing total cell area by 50% relative to DMSO controls, methylene blue, absorbance 620 nm, 72 h incubation
Structure (SMILES),IC50 [1] [nM],TD50 [2],"IC50 [1, 3] [nM]","TD50 [2, 4]"
"Cc1ccc(CNC(=O)c2ccc(-c3cc(C(=O)Nc4ccc(N5CCOCC5)cc4)ccc3C)cc2)o1 [Example 14, 6-Methyl-biphenyl-3,4′-dicarboxylic acid 4′-[(5-methyl-furan-2-ylmethyl)-amide] 3-[(4-morpholin-4-yl-phenyl)-amide]]",1000 to 5000,** (key: * < 50 μM; ** > 50 μM),–,–
"O=C(Nc1ccc(CN2CCS(=O)(=O)CC2)cc1)c1ccc(-c2cc(NC(=O)C3CC3)ccc2Cl)cc1 [Example 194, 2′-Chloro-5′-(cyclopropanecarbonyl-amino)-biphenyl-4-carboxylic acid [4-(1,1-dioxo-1lambda*6*-thiomorpholin-4-ylmethyl)-phenyl]-amide]",–,–,< 1000,* (* < 50 μM)
"Cc1ccc(C(=O)Nc2ccc(N3CCOCC3)cc2)cc1-c1ccc(NC(=O)c2cccc(Br)c2)cc1 [Example 103, 4′-(3-Bromo-benzoylamino)-6-methyl-biphenyl-3-carboxylic acid (4-morpholin-4-yl-phenyl)-amide]",–,–,1000 to 5000,** (** > 50 μM)
"Cc1ccc(C(=O)Nc2ccc(N3CCOCC3)cc2)cc1-c1ccc(C(=O)Nc2ccc(Cl)c(Cl)c2)cc1 [Example 22, 6-Methyl-biphenyl-3,4′-dicarboxylic acid 4′-[(3,4-dichloro-phenyl)-amide] 3-[(4-morpholin-4-yl-phenyl)-amide]]",1000 to 5000,** (key: * < 50 μM; ** > 50 μM),–,–
"Cc1ccc(C(=O)Nc2ccc(N3CCOCC3)cc2)cc1-c1ccc(C(=O)Nc2cccc3cc[nH]c23)cc1 [Example 48, 6-Methyl-biphenyl-3,4′-dicarboxylic acid 4′-[(1H-indol-7-yl)-amide] 3-[(4-morpholin-4-yl-phenyl)-amide]]",1000 to 5000,** (key: * < 50 μM; ** > 50 μM),–,–
"Cc1ccc(C(=O)Nc2ccc(N3CCOCC3)cc2)cc1-c1ccc(NC(=O)c2ccc(CN3CCS(=O)(=O)CC3)cc2)cc1 [Example 151, 4′-[4-(1,1-Dioxo-1lambda*6*-thiomorpholin-4-ylmethyl)-benzoylamino]-6-methyl-biphenyl-3-carboxylic acid (4-morpholin-4-yl-phenyl)-amide]",–,–,< 1000,* (* < 50 μM)
"CC(=O)Nc1cccc(NC(=O)c2ccc(-c3cc(C(=O)Nc4ccc(N5CCOCC5)cc4)ccc3C)cc2)c1 [Example 61, 6-Methyl-biphenyl-3,4′-dicarboxylic acid 4′-[(3-acetylamino-phenyl)-amide] 3-[(4-morpholin-4-yl-phenyl)-amide]]",1000 to 5000,** (key: * < 50 μM; ** > 50 μM),–,–
"Cc1ccc(C(=O)Nc2ccc(N3CCOCC3)cc2)cc1-c1ccc(C(=O)N2CCCC2)cc1 [Example 15, 6-Methyl-4′-(pyrrolidine-1-carbonyl)-biphenyl-3-carboxylic acid (4-morpholin-4-yl-phenyl)-amide]",–,–,> 5000,* (* < 50 μM)
"CCN(CC)CCNC(=O)c1ccc(NC(=O)c2ccc(-c3cc(C(=O)NC4CC4)ccc3C)cc2)cc1 [Example 208, 6-Methyl-biphenyl-3,4′-dicarboxylic acid 3-cyclopropylamide 4′-{[4-(2-diethylamino-ethylcarbamoyl)-phenyl]-amide}]",> 5000,* (key: * < 50 μM; ** > 50 μM),–,–
"Cc1ccc(C(=O)Nc2ccc(N3CCOCC3)cc2)cc1-c1ccc(C(=O)NCc2cccc(Cl)c2F)cc1 [Example 57, 6-Methyl-biphenyl-3,4′-dicarboxylic acid 4′-(3-chloro-2-fluoro-benzylamide) 3-[(4-morpholin-4-yl-phenyl)-amide]]",1000 to 5000,** (key: * < 50 μM; ** > 50 μM),–,–
"Cc1ccc(C(=O)Nc2ccc(N3CCOCC3)cc2)cc1-c1ccc(NC(=O)c2nc3ccccc3nc2O)cc1 [Example 104, 3-Hydroxy-quinoxaline-2-carboxylic acid [2′-methyl-5′-(4-morpholin-4-yl-phenylcarbamoyl)-biphenyl-4-yl]-amide]",–,–,1000 to 5000,** (** > 50 μM)
"Cc1ccc(NC(=O)c2ccco2)cc1-c1ccc(C(=O)Nc2ccc3cc[nH]c3c2)cc1 [Example 233, Furan-2-carboxylic acid [4′-(1H-indol-6-ylcarbamoyl)-6-methyl-biphenyl-3-yl]-amide]",–,–,< 1000,* (* < 50 μM)
"CCCS(=O)(=O)N1CCN(Cc2ccc(NC(=O)c3ccc(-c4cc(S(=O)(=O)Nc5ccc(N6CCOCC6)cc5)ccc4OC)cc3)cc2)CC1 [Example 248, 2′-Methoxy-5′-(4-morpholin-4-yl-phenylsulfamoyl)-biphenyl-4-carboxylic acid [4-(4-propane-1-sulfonyl-piperazin-1-ylmethyl)-phenyl]-amide]",–,–,< 1000,* (* < 50 μM)
"Cc1ccc(C(=O)Nc2ccc(N3CCOCC3)cc2)cc1-c1ccc(C(=O)Nc2ccccc2CN(C)C2CCCCC2)cc1 [Example 35, 6-Methyl-biphenyl-3,4′-dicarboxylic acid 4′-({2-[(cyclohexyl-methyl-amino)-methyl]-phenyl}-amide) 3-[(4-morpholin-4-yl-phenyl)-amide]]",> 5000,** (key: * < 50 μM; ** > 50 μM),–,–
"CCCS(=O)(=O)N1CCN(Cc2ccc(NC(=O)c3ccc(-c4cc(C(=O)Nc5ccc(N6CCOCC6)cc5)ccc4OC)cc3)cc2)CC1 [Example 257, 6-Methoxy-biphenyl-3,4′-dicarboxylic acid 3-[(4-morpholin-4-yl-phenyl)-amide] 4′-({4-[4-(propane-1-sulfonyl)-piperazin-1-ylmethyl]-phenyl}-amide)]",< 1000,–,–,* (* < 50 μM)
"CCCCNS(=O)(=O)c1cccc(NC(=O)c2ccc(-c3cc(C(=O)Nc4ccc(N5CCOCC5)cc4)ccc3C)cc2)c1 [Example 21, 6-Methyl-biphenyl-3,4′-dicarboxylic acid 4′-[(3-butylsulfamoyl-phenyl)-amide] 3-[(4-morpholin-4-yl-phenyl)-amide]]",1000 to 5000,** (key: * < 50 μM; ** > 50 μM),–,–
"Cc1ccc(C(=O)Nc2ccc(N3CCOCC3)cc2)cc1-c1ccc(NC(=O)c2cnccc2C(F)(F)F)cc1 [Example 111, N-[2′-Methyl-5′-(4-morpholin-4-yl-phenylcarbamoyl) -biphenyl-4-yl]-4-trifluoromethyl-nicotinamide]",–,–,> 5000,** (** > 50 μM)
"Cc1cc(C(=O)Nc2ccc(N3CCOCC3)cc2)ccc1-c1cccc(C(=O)Nc2ccc3cn[nH]c3c2)c1 [Example 63, 2′-Methyl-biphenyl-3,4′-dicarboxylic acid 3-[(1H-indazol-6-yl)-amide] 4′-[(4-morpholin-4-yl-phenyl)-amide]]",< 1000,* (key: * < 50 μM; ** > 50 μM),–,–
"Cc1ccc(NC(=O)C2CCCCC2)cc1-c1ccc(C(=O)Nc2ccc(CN3CCS(=O)(=O)CC3)cc2)cc1 [Example 158, 5′-(Cyclohexanecarbonyl-amino)-2′-methyl-biphenyl-4-carboxylic acid [4-(1,1-dioxo-1lambda*6*-thiomorpholin-4-ylmethyl)-phenyl]-amide]",–,–,< 1000,* (* < 50 μM)
"COc1ccc(S(=O)(=O)Nc2ccc(N3CCOCC3)cc2)cc1-c1ccc(C(=O)Nc2ccc(CN3CCN(S(=O)(=O)N(C)C)CC3)cc2)cc1 [Example 247, 2′-Methoxy-5′-(4-morpholin-4-yl-phenylsulfamoyl)-biphenyl-4-carboxylic acid [4-(4-dimethylsulfamoyl-piperazin-1-ylmethyl)-phenyl]-amide]",–,–,< 1000,* (* < 50 μM)
"Cc1ccc(C(=O)Nc2ccc(N3CCOCC3)cc2)cc1-c1ccc(C(=O)Nc2ccc(C#N)cc2)cc1 [Example 24, 6-Methyl-biphenyl-3,4′-dicarboxylic acid 4′-[(4-cyano-phenyl)-amide] 3-[(4-morpholin-4-yl-phenyl)-amide]]",> 5000,** (key: * < 50 μM; ** > 50 μM),–,–
